Drawing on PubChem BioAssay AID250 (DTP/NCI, 2004), this text covers T/C for seven molecules.

Values joined by “and” are separate entries in the source; they are usually repeats but may differ in a detail not shown here. Equal values may be shown once. Toxic doses and inconclusive results are not listed.

This experiment relates to BDF1 mice, L1210 leukemia sc, survival T/C. The experiment is described as follows: NCI In Vivo Anticancer Drug Screen. Data for tumor model L1210 Leukemia (subcutaneous) in B6D2F1 (BDF1) mice. The following applies: endpoint: median survival time, higher = longer survival. The gist of the method:
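Read-out: T/C ratio, i.e. survival or tumor size in treated mice over that in vehicle-treated controls, from mice bearing transplantable tumors.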

[1] abbreviates: dose: 8.4 mg/kg/injection, schedule: Q01DX Z (sc), vehicle: saline.
[2] abbreviates: dose: 14.0 mg/kg/injection, schedule: Q01DX Z (sc), vehicle: saline.
Setting [3] is: dose: 23.0 mg/kg/injection, schedule: Q01DX Z (sc), vehicle: saline.
The mark [4] stands for this setting: dose: 39.0 mg/kg/injection, schedule: Q01DX Z (sc), vehicle: saline.
[5] abbreviates: dose: 65.0 mg/kg/injection, schedule: Q01DX Z (sc), vehicle: saline.
Setting [6] is: dose: 108.0 mg/kg/injection, schedule: Q01DX Z (sc), vehicle: saline.
[7] abbreviates: dose: 180.0 mg/kg/injection, schedule: Q01DX Z (sc), vehicle: saline.
Where [8] appears, read: dose: 300.0 mg/kg/injection, schedule: Q01DX Z (sc), vehicle: saline.

As to `S=P(N1CCCCCC1)(N1CC1)N1CC1`, the T/C (dose: 4.7 mg/kg/injection, schedule: Q01DX Z (sc), vehicle: saline) was 100 % of control; the T/C (dose: 7.8 mg/kg/injection, schedule: Q01DX Z (sc), vehicle: saline) was 111 % of control; the T/C under setting [1] is 111 % of control; the T/C (dose: 13.0 mg/kg/injection, schedule: Q01DX Z (sc), vehicle: saline) was 100 % of control; the T/C under setting [2] was 111 % of control; the T/C (dose: 21.6 mg/kg/injection, schedule: Q01DX Z (sc), vehicle: saline) is 111 % of control. In addition, the T/C runs as follows: under setting [3], 111 % of control; (dose: 36.0 mg/kg/injection, schedule: Q01DX Z (sc), vehicle: saline) 116 % of control; under setting [4], 122 % of control; (dose: 60.0 mg/kg/injection, schedule: Q01DX Z (sc), vehicle: saline) 166 % of control; under setting [5], 116 % of control; (dose: 100.0 mg/kg/injection, schedule: Q01DX Z (sc), vehicle: saline) 161 % of control. The T/C under setting [6] is 155 % of control.
Turning to `CCOC(N)=O`, the T/C is 95 % of control under setting [5]; 100 % of control under setting [6]; 100 % of control under setting [7]; 100 % of control under setting [8]; 90 % of control (dose: 500.0 mg/kg/injection, schedule: Q01DX Z (sc), vehicle: saline).
Turning to `Nc1nc(=S)c2ncn(C3OC(COC(=O)c4ccc(Cl)cc4)C(OC(=O)c4ccc(Cl)cc4)C3OC(=O)c3ccc(Cl)cc3)c2[nH]1` (stereo not given), the T/C reads like this: (dose: 12.5 mg/kg/injection, schedule: Q01DX Z (sc), vehicle: carboxymethylcellulose (CMC)) 100 % of control; (dose: 25.0 mg/kg/injection, schedule: Q01DX Z (sc), vehicle: carboxymethylcellulose (CMC)) 106 % of control; (dose: 50.0 mg/kg/injection, schedule: Q01DX Z (sc), vehicle: carboxymethylcellulose (CMC)) 100 % of control; (dose: 65.0 mg/kg/injection, schedule: Q01DX Z (sc), vehicle: carboxymethylcellulose (CMC)) 100 % of control; (dose: 100.0 mg/kg/injection, schedule: Q01DX Z (sc), vehicle: carboxymethylcellulose (CMC)) 112 % of control; (dose: 108.0 mg/kg/injection, schedule: Q01DX Z (sc), vehicle: carboxymethylcellulose (CMC)) 122 % of control. For the same molecule, the T/C (dose: 200.0 mg/kg/injection, schedule: Q01DX Z (sc), vehicle: carboxymethylcellulose (CMC)) is 150 % of control.
On to `COc1ccc2[nH]c3c(C)c4ccncc4c(C)c3c2c1`, for which the T/C reads like this: under setting [4], 100 % of control; under setting [5], 100 % of control; under setting [6], 112 % of control; under setting [7], 116 % of control; under setting [8], 116 % of control.
On to `CC/C(=C(/CC)c1ccc(O)cc1)c1ccc(O)cc1`, for which the T/C reads like this: (dose: 108.0 mg/kg/injection, schedule: Q01DX Z (sc), vehicle: methylcellulose (MC)) 100 % of control; (dose: 300.0 mg/kg/injection, schedule: Q01DX Z (sc), vehicle: methylcellulose (MC)) 100 % of control.
As to `CN(N=O)C(=O)Nc1c[nH]c(=O)[nH]c1=O`, the T/C was 90 % of control under setting [2]; 100 % of control under setting [3]; 105 % of control under setting [4]; 95 % of control under setting [5]; 100 % of control under setting [6].
In the case of `CO[C@@]12[C@H](COC(N)=O)C3=C(C(=O)C(C)=C(N)C3=O)N1C[C@@H]1N[C@@H]12`, the T/C by setting is: (dose: 0.1 mg/kg/injection, schedule: Q01DX Z (sc), vehicle: saline) 95 % of control; (dose: 0.17 mg/kg/injection, schedule: Q01DX Z (sc), vehicle: saline) 100 % of control; (dose: 0.28 mg/kg/injection, schedule: Q01DX Z (sc), vehicle: saline) 100 % of control; (dose: 0.47 mg/kg/injection, schedule: Q01DX Z (sc), vehicle: saline) 91 % of control; (dose: 0.79 mg/kg/injection, schedule: Q01DX Z (sc), vehicle: saline) 100 % of control; (dose: 1.0 mg/kg/injection, schedule: Q01DX009 (ip), vehicle: water) 110 % of control. The T/C reads like this: (dose: 1.0 mg/kg/injection, schedule: Q01DX009 (sc), vehicle: water) 101 % of control; (dose: 1.08 mg/kg/injection, schedule: Q01DX Z (sc), vehicle: saline) 100 % of control; (dose: 1.3 mg/kg/injection, schedule: Q01DX Z (sc), vehicle: other) 104 % of control; (dose: 1.3 mg/kg/injection, schedule: Q01DX Z (sc), vehicle: saline) 104 % of control; (dose: 1.31 mg/kg/injection, schedule: Q01DX Z (sc), vehicle: saline) 95 % of control; (dose: 1.8 mg/kg/injection, schedule: Q01DX Z (sc), vehicle: saline) 100 % of control. For the same molecule, the T/C was 100 % of control (dose: 1.8 mg/kg/injection, schedule: Q02DX Z (sc), vehicle: saline); 110 % of control (dose: 2.0 mg/kg/injection, schedule: Q01DX009 (ip), vehicle: water); 110 % of control and 118 % of control (dose: 2.0 mg/kg/injection, schedule: Q01DX009 (sc), vehicle: water); 100 % of control (dose: 2.16 mg/kg/injection, schedule: Q01DX Z (sc), vehicle: other); 109 % of control (dose: 2.16 mg/kg/injection, schedule: Q01DX Z (sc), vehicle: saline); 100 % of control (dose: 2.18 mg/kg/injection, schedule: Q01DX Z (sc), vehicle: saline). The T/C by setting is: (dose: 3.0 mg/kg/injection, schedule: Q01DX Z (sc), vehicle: saline) 109 % of control; (dose: 3.0 mg/kg/injection, schedule: Q02DX Z (sc), vehicle: saline) 109 % of control; (dose: 3.0 mg/kg/injection, schedule: Q## X Z (sc), vehicle: saline) 104 % of control; (dose: 3.6 mg/kg/injection, schedule: Q01DX Z (sc), vehicle: other) 109 % of control; (dose: 3.6 mg/kg/injection, schedule: Q01DX Z (sc), vehicle: saline) 113 % of control; (dose: 4.0 mg/kg/injection, schedule: Q01DX009 (ip), vehicle: water) 92 % of control. The T/C was 98 % of control and 121 % of control (dose: 4.0 mg/kg/injection, schedule: Q01DX009 (sc), vehicle: water); 109 % of control (dose: 5.0 mg/kg/injection, schedule: Q01DX001 (sc), vehicle: saline); 118 % of control (dose: 5.0 mg/kg/injection, schedule: Q02DX Z (sc), vehicle: saline); 109 % of control (dose: 5.0 mg/kg/injection, schedule: Q## X Z (sc), vehicle: saline); 113 % of control (dose: 6.0 mg/kg/injection, schedule: Q01DX Z (sc), vehicle: other); 118 % of control (dose: 6.0 mg/kg/injection, schedule: Q01DX Z (sc), vehicle: saline). The T/C reads like this: (dose: 6.06 mg/kg/injection, schedule: Q01DX Z (sc), vehicle: saline) 116 % of control; (dose: 8.0 mg/kg/injection, schedule: Q01DX009 (sc), vehicle: water) 108 % of control; (dose: 8.4 mg/kg/injection, schedule: Q01DX001 (sc), vehicle: saline) 113 % of control; under setting [1], 118 % of control; (dose: 8.4 mg/kg/injection, schedule: Q## X Z (sc), vehicle: saline) 122 % of control; (dose: 10.0 mg/kg/injection, schedule: Q01DX Z (sc), vehicle: other) 109 % of control. Also, the T/C was 100 % of control (dose: 10.0 mg/kg/injection, schedule: Q01DX Z (sc), vehicle: saline); 109 % of control under setting [2]; 118 % of control (dose: 14.0 mg/kg/injection, schedule: Q02DX Z (sc), vehicle: saline); 97 % of control (dose: 16.0 mg/kg/injection, schedule: Q01DX009 (sc), vehicle: water); 118 % of control (dose: 23.0 mg/kg/injection, schedule: Q01DX001 (sc), vehicle: saline); 109 % of control under setting [3]. For the same molecule, the T/C reads like this: (dose: 23.0 mg/kg/injection, schedule: Q02DX Z (sc), vehicle: saline) 118 % of control; (dose: 23.0 mg/kg/injection, schedule: Q## X Z (sc), vehicle: saline) 118 % of control; (dose: 39.0 mg/kg/injection, schedule: Q01DX001 (sc), vehicle: saline) 118 % of control; (dose: 39.0 mg/kg/injection, schedule: Q02DX Z (sc), vehicle: saline) 122 % of control; (dose: 39.0 mg/kg/injection, schedule: Q## X Z (sc), vehicle: saline) 118 % of control; (dose: 65.0 mg/kg/injection, schedule: Q01DX001 (sc), vehicle: saline) 109 % of control.
